Holding throughout (format): cell-based
One experiment deals with T1, SMARCA4 (Homo sapiens, UniProt P51532).
T1 construct: SMARCA2/SMARCA4 protein degradation selectivity in MV4-11 cells; endogenous in cells; host or cells: MV4-11
Briefly: SMARCA4 Western blot degradation in MV4-11 cells. The following applies: 24 h; for Dmax: MV4-11, MV4-11 cells, read-out: SMARCA4 MSD MV411 degradation 24 h: average Dmax %; for DC50: MV4-11 cells, read-out: SMARCA4 MSD MV411 degradation 24 h: Mean external-Abs DC50. The method, boiled down: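 Protein levels quantified by LI-COR Western blot (beta-actin loading control) in RIPA lysates of MV4-11 cells after 24 h compound exposure. Degradation reported as DC50, Dmax % at 24 h and SMARCA2 vs SMARCA4 selectivity, each binned into letter codes.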

In experiment [1] the target is T2, SMARCA2 (Homo sapiens, UniProt P51531). As to the kind of experiment: SMARCA2 Western blot degradation in MV4-11 cells. More on the design: SMARCA2/SMARCA4 protein degradation selectivity in MV4-11 cells; endogenous in cells; host or cells: MV4-11. The following applies: for Dmax: MV4-11, MV4-11 cells, read-out: SMARCA2 MSD MV411 degradation 24 h: average Dmax %; for Dmax / DC50: 24 h; for DC50 / Selectivity in MV411: MV4-11 cells; for DC50: read-out: SMARCA2 MSD MV411 degradation 24 h: Mean external-Abs DC50; for Selectivity in MV411: SMARCA2/4 selectivity. On the technique in general: Immunoblotting shows a protein as a band on a membrane.

Experiment [2] has as its target T2, SMARCA2. Briefly: MSD SMARCA2 degradation in A549 cell line. The following applies: 24 h; for Dmax: A549, A549 cells; for DC50: A549 cells, read-out: SMARCA2 MSD A549 degradation 24 h: Average external-Abs DC50. Summed up:
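SMARCA2 protein remaining after 24 h exposure of A549 cells (top concentration 1000 nM, 3-fold dilutions) was measured by MSD electrochemiluminescence immunoassay of cell lysates. Results are given as binned DC50 and maximal degradation (Dmax) codes.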

The structures appear in SMILES notation.

In general, Dmax refers to the largest share of the target that was removed. Usually DC50 stands for the midpoint of the concentration-degradation curve.

T2 sequence (P51531 whole entry): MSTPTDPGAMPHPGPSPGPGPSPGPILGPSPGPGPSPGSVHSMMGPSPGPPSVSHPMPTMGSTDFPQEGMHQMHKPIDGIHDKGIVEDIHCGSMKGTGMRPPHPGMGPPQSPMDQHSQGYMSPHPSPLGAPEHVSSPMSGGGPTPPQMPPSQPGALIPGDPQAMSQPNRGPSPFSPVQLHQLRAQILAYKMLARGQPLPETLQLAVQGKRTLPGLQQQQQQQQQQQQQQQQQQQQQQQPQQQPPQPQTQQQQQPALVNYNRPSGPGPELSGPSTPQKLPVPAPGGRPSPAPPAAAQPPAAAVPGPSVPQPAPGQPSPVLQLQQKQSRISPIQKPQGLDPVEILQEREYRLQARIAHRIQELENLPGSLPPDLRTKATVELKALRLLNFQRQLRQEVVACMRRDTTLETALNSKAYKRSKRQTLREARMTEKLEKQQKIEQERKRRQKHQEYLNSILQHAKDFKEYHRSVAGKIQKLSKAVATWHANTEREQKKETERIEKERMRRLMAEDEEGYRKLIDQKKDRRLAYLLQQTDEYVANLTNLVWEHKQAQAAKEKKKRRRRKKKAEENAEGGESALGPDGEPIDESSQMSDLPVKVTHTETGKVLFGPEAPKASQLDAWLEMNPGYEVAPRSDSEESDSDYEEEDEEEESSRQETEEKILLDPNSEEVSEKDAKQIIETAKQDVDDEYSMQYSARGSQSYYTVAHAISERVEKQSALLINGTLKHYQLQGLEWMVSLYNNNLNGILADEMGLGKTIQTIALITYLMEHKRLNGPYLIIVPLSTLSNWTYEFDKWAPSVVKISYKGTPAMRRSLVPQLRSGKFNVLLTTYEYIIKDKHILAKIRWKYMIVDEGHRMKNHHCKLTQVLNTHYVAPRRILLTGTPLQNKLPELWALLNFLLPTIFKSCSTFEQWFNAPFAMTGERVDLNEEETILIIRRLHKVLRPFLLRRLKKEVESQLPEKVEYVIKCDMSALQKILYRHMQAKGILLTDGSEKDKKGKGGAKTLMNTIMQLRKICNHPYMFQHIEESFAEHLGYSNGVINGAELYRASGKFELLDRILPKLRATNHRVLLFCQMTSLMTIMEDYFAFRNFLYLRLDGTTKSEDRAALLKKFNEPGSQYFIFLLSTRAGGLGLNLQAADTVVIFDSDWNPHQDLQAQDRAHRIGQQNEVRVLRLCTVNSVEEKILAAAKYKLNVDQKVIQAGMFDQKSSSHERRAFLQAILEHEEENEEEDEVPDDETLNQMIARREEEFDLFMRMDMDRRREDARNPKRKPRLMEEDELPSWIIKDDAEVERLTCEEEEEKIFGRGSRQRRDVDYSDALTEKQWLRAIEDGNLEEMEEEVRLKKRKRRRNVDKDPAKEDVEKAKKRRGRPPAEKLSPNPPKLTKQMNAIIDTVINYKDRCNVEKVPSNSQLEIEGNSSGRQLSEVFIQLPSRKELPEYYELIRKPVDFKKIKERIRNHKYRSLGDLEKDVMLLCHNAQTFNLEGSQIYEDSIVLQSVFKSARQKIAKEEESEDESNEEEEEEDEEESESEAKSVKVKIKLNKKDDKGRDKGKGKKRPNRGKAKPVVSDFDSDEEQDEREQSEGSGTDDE
T1 sequence (P51532 whole entry): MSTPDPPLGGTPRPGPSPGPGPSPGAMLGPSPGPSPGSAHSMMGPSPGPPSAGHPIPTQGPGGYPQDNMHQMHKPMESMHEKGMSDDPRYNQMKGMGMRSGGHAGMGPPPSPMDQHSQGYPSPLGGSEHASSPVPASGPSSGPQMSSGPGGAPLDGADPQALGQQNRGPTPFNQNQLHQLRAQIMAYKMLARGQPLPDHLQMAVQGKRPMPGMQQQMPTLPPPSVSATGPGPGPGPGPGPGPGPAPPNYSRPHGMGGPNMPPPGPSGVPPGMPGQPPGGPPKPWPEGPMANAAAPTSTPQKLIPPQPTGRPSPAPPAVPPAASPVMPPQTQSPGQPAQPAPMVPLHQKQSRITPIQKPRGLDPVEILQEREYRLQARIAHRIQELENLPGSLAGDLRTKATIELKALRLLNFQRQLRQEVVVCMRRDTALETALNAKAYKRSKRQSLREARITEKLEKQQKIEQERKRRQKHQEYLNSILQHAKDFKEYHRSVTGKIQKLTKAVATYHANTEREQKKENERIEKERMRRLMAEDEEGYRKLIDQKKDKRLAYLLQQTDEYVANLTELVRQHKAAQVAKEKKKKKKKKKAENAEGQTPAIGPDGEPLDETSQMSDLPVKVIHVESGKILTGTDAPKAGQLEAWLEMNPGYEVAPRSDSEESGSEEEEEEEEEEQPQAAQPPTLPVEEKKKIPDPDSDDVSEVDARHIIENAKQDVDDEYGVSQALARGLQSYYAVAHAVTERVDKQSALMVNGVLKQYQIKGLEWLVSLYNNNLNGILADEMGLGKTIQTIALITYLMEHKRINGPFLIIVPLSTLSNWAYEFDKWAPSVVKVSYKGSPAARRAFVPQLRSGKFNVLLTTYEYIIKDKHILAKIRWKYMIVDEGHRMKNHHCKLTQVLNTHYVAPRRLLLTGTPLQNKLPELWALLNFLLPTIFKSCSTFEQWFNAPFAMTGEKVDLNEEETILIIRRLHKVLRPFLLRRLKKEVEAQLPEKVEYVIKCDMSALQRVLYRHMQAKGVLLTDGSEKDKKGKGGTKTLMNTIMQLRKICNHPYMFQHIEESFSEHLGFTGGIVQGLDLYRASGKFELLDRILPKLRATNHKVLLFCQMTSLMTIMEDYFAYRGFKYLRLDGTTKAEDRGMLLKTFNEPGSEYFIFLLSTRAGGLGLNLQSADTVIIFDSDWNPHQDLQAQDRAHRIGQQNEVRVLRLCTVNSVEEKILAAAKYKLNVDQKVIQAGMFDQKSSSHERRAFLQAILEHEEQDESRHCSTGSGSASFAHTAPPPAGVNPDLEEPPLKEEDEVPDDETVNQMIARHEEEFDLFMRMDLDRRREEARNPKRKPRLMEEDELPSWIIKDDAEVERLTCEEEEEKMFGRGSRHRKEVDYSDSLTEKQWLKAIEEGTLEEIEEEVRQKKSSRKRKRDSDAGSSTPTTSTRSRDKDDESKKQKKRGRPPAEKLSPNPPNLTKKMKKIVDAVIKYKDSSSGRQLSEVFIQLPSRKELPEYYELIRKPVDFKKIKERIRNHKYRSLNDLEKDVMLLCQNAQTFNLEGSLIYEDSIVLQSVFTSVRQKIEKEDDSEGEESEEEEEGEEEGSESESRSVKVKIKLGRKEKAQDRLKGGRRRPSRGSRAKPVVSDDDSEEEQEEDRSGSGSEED

As to `C#Cc1ccc(CNC(=O)[C@@H]2C[C@@H](O)CN2C(=O)[C@@H](NC(=O)c2ccc(N3CCC(N4CCC(N5CCN6c7cc(-c8ccccc8O)nnc7NC[C@H]6C5)CC4)CC3)cc2)C(C)(C)C)cc1` [I-277], the Dmax on SMARCA4 was 70 to 90%; at SMARCA2 [1], greater than 90%; at SMARCA2 [2], greater than 90%. In addition, the half-maximal degradation concentration (DC50) on SMARCA4 is 10 to 100 nM; at SMARCA2 [1] it was 1 to 10 nM; on SMARCA2 [2], less than 10 nM. The “Selectivity in MV411” value at SMARCA2 [1] is “C (C (10-100 fold))”.

Take `C#Cc1cnc(CNC(=O)[C@@H]2C[C@@H](O)CN2C(=O)[C@@H](NC(=O)[C@H]2CC3(C2)C[C@H](N2CCC(N4CCC(N5CCN6c7cc(-c8ccccc8O)nnc7NC[C@H]6C5)CC4)CC2)C3)C(C)(C)C)c(OC)c1` (stereo partly shown) [I-331]: the DC50 at SMARCA4 and at SMARCA2 [2] was greater than 100 nM throughout. In addition, at SMARCA2 [1], the “Selectivity in MV411” value is on record as “C (C (10-100 fold))”.

As to `C#Cc1ccc(CNC(=O)[C@@H]2C[C@@H](O)CN2C(=O)[C@@H](NC(=O)C2CC3(C2)CN(c2cnc(N4CCC(N5CCN6c7cc(-c8ccccc8O)nnc7NC[C@H]6C5)CC4)cn2)C3)C(C)(C)C)cc1` [I-320], at SMARCA4, the Dmax was greater than 90% and the DC50 lay within 10 to 100 nM. Besides, on SMARCA2 [1], the Dmax was greater than 90%, the DC50 is 1 to 10 nM and the “Selectivity in MV411” value is on record as “C (C (10-100 fold))”. For the same compound, on SMARCA2 [2], the Dmax is greater than 90% and the DC50 is less than 10 nM.

With `C#Cc1ccc(CNC(=O)[C@@H]2C[C@@H](O)CN2C(=O)[C@@H](NC(=O)N2CCN(CC3CCN(c4cnc(N5CCN6c7cc(-c8ccccc8O)nnc7NC[C@H]6C5)nc4)CC3)CC2)C(C)(C)C)cc1` [I-163], at SMARCA4, the maximal degradation (Dmax) fell in the range of 50 to 70% and the DC50 is greater than 100 nM. At SMARCA2 [1], the Dmax lay in the range of 70 to 90%, the DC50 is less than 1 nM and the “Selectivity in MV411” value is “B (B (>100-500 fold))”. Also, at SMARCA2 [2], the Dmax is greater than 90% and the DC50 was in the range of 10 to 50 nM.

For the compound `C#Cc1ccc(CNC(=O)[C@@H]2C[C@@H](O)CN2C(=O)[C@@H](NC(=O)[C@H]2CC3(C2)C[C@H](N2CCN(C(=O)CN4CCN5c6cc(-c7ccccc7O)nnc6NC[C@H]5C4)CC2)C3)C(C)(C)C)cc1` (stereo partly shown) [I-240], the DC50 was 10 to 100 nM at SMARCA4, 1 to 10 nM on SMARCA2 [1] and greater than 100 nM on SMARCA2 [2]. Besides, the “Selectivity in MV411” value at SMARCA2 [1] was “D (D (<10 fold))”.

With `C#Cc1ccc([C@H](C)NC(=O)[C@@H]2C[C@@H](O)CN2C(=O)[C@@H](OC(=O)N2CC3(CC(N4CCC(c5cnc(N6CCc7[nH]c8nnc(-c9ccccc9O)cc8c7[C@H]6C)nc5)CC4)C3)C2)C(C)(C)C)cc1` [I-150], at SMARCA4, the Dmax was 70 to 90% and the DC50 is greater than 100 nM. Also, on SMARCA2 [1], the Dmax was in the range of 70 to 90%, the DC50 is 1 to 10 nM and the “Selectivity in MV411” value is reported as “C (C (10-100 fold))”. In addition, at SMARCA2 [2], the Dmax is greater than 90% and the DC50 was 10 to 50 nM.

For the compound `C#Cc1ccc(CNC(=O)[C@@H]2C[C@@H](O)CN2C(=O)[C@@H](NC(=O)N2CCC(CN3CCC(N4CCC(N5CCc6[nH]c7nnc(-c8ccccc8O)cc7c6[C@H]5C)CC4)CC3)CC2)C(C)(C)C)cc1` [I-189], on SMARCA4, the Dmax was less than 50% and the DC50 was greater than 100 nM. Besides, at SMARCA2 [1], the Dmax is less than 50%, the DC50 is greater than 100 nM and the “Selectivity in MV411” value is reported as “C (C (10-100 fold))”. In addition, at SMARCA2 [2], the Dmax was 50 to 70% and the DC50 was greater than 100 nM.

For the compound `C#Cc1ccc(CNC(=O)[C@@H]2C[C@@H](O)CN2C(=O)[C@@H](NC(=O)[C@H]2CC[C@H](CN3CCC(c4cnc(N5CCN6c7cc(-c8ccccc8O)nnc7NC[C@H]6C5)nc4)CC3)CC2)C(C)(C)C)cc1` [I-294], the Dmax on SMARCA4 is 70 to 90%; on SMARCA2 [1], greater than 90%; on SMARCA2 [2] it was greater than 90%. Besides, the DC50 was 10 to 100 nM on SMARCA4, 1 to 10 nM on SMARCA2 [1] and less than 10 nM at SMARCA2 [2]. Besides, the “Selectivity in MV411” value on SMARCA2 [1] is recorded as “C (C (10-100 fold))”.

Consider `C#Cc1ccc(CNC(=O)[C@@H]2C[C@@H](O)CN2C(=O)[C@@H](NC(=O)C2CCC3(CC2)CC(N2CCC(N4CCC[C@@H](C(=O)N5CCN6c7cc(-c8ccccc8O)nnc7NC[C@H]6C5)C4)CC2)C3)C(C)(C)C)cc1` (single isomer, unassigned) [I-91], for which the Dmax was less than 50% at SMARCA4, 70 to 90% at SMARCA2 [1] and greater than 90% on SMARCA2 [2]. In addition, the DC50 is greater than 100 nM at SMARCA4, 1 to 10 nM at SMARCA2 [1] and greater than 100 nM on SMARCA2 [2]. Besides, at SMARCA2 [1], the “Selectivity in MV411” value is listed as “A (A (>500 fold))”.

With `C#Cc1ccc(CNC(=O)[C@@H]2C[C@@H](O)CN2C(=O)[C@@H](NC(=O)N2CC3(CC(N4CCC(c5cnc(N6CCc7[nH]c8nnc(-c9ccccc9O)cc8c7[C@H]6CO)nc5)CC4)C3)C2)C(C)(C)C)cc1` [I-146], at SMARCA4, the Dmax fell in the range of 70 to 90% and the DC50 fell in the range of 10 to 100 nM. Further, on SMARCA2 [1], the Dmax is greater than 90%, the DC50 lay within 1 to 10 nM and the “Selectivity in MV411” value is “C (C (10-100 fold))”. In addition, on SMARCA2 [2], the Dmax is greater than 90% and the DC50 is less than 10 nM.

Regarding `C#Cc1ccc(CNC(=O)[C@@H]2C[C@@H](O)CN2C(=O)[C@@H](NC(=O)[C@H]2CCC3(CC2)C[C@H](N2CCN(c4cnc(N5CCN6c7cc(-c8ccccc8O)nnc7NC[C@H]6C5)nc4)CC2)C3)C(C)(C)CCO)cc1` (single isomer, unassigned) [I-287], at SMARCA4, the Dmax lay within 50 to 70% and the DC50 was greater than 100 nM. Also, at SMARCA2 [1], the Dmax fell in the range of 70 to 90%, the DC50 is 1 to 10 nM and the “Selectivity in MV411” value is given as “A (A (>500 fold))”. Moreover, at SMARCA2 [2], the Dmax was greater than 90% and the DC50 was less than 10 nM.

On to `C#Cc1ccc(CNC(=O)[C@@H]2C[C@@H](O)CN2C(=O)[C@@H](NC(=O)N2CC3(CC(N4CCC(c5cnc(N6CCc7[nH]c8nnc(-c9ccccc9O)cc8c7[C@H]6CC)nc5)CC4)C3)C2)C(C)(C)C)cc1` [I-136], for which, at SMARCA4, the Dmax is 70 to 90% and the DC50 was greater than 100 nM. Further, on SMARCA2 [1], the Dmax lay within 70 to 90%, the DC50 lay in the range of 1 to 10 nM and the “Selectivity in MV411” value is “C (C (10-100 fold))”. Further, at SMARCA2 [2], the Dmax was greater than 90% and the DC50 is 10 to 50 nM.

As to `C#Cc1ccc(CNC(=O)[C@@H]2C[C@@H](O)CN2C(=O)[C@@H](NC(=O)N2CC3(CC(N4CCC5(CCN(c6cnc(N7CCc8[nH]c9nnc(-c%10ccccc%10O)cc9c8C7C)nc6)C5)C4)C3)C2)C(C)(C)C)cc1` (stereo partly shown) [I-173], at SMARCA4, the Dmax is 50 to 70% and the DC50 is greater than 100 nM. On SMARCA2 [1], the maximal degradation (Dmax) was in the range of 50 to 70%, the DC50 lay within 10 to 100 nM and the “Selectivity in MV411” value is given as “C (C (10-100 fold))”. Also, on SMARCA2 [2], the Dmax was greater than 90% and the DC50 was greater than 100 nM.

Turning to `C#Cc1ccc(CNC(=O)[C@@H]2C[C@@H](O)CN2C(=O)[C@@H](NC(=O)[C@H]2CCC3(CC2)C[C@H](N2CCN(c4cnc(N5CCN6c7cc(-c8ccccc8O)nnc7NC[C@H]6C5)nc4)CC2)C3)C(C)(C)CCO)c(Cl)c1` (single isomer, unassigned) [I-311], at SMARCA4, the Dmax was 70 to 90% and the DC50 is greater than 100 nM. Also, on SMARCA2 [1], the Dmax fell in the range of 70 to 90%, the DC50 lay in the range of 1 to 10 nM and the “Selectivity in MV411” value is on record as “C (C (10-100 fold))”. In addition, at SMARCA2 [2], the Dmax is greater than 90% and the DC50 was 10 to 50 nM.

Source of the values: patent publication US20250170248A1, “SMARCA DEGRADERS AND USES THEREOF” (Kymera Therapeutics, Inc., priority 2021, published 2025).
